Each structure is given as a SMILES string.

In this test the target is human JAK1 (a.a. 837-1142). As to the kind of experiment: In vitro JAK kinase assay (HTRF, phosphorylation of a biotinylated peptide), JAK1. Format: biochemical. The conditions noted are these: measured at 1 mM ATP; JAK2 IC50 / JAK1 IC50. The essentials: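 N-terminally His-tagged catalytic domains, baculovirus-expressed in insect cells and purified, were used as enzyme. Reactions ran 1 hr at room temperature and were stopped with a mix of 45 mM EDTA, 300 nM SA-APC and 6 nM Eu-Py20. The HTRF signal was read after 40 min of antibody binding.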
For orientation: In TR-FRET formats the signal depends on donor and acceptor labels being close together.

In the case of `N#CCC1(n2cc(-c3ncnc4[nH]ccc34)cn2)CN(C2CCN(C(=O)c3ccc(-c4ccc(C#N)cc4)cc3)CC2)C1` [Example 126, 4′-[(4-{3-(cyanomethyl)-3-[4-(7H-pyrrolo[2,3-d]pyrimidin-4-yl)-1H-pyrazol-1-yl]azetidin-1-yl}piperidin-1-yl)carbonyl]biphenyl-4-carbonitrile], the “IC50 Ratio JAK2/JAK1” value is on record as 6.3. For the compound `N#CCC1(n2cc(-c3ncnc4[nH]ccc34)cn2)CN(C2CCN(Cc3c(F)cccc3Cl)CC2)C1` [Example 227, {1-[1-(2-chloro-6-fluorobenzyl)piperidin-4-yl]-3-[4-(7H-pyrrolo[2,3-d]pyrimidin-4-yl)-1H-pyrazol-1-yl]azetidin-3-yl}acetonitrile], the “IC50 Ratio JAK2/JAK1” value is reported as 7.9. Regarding `N#CCC1(n2cc(-c3ncnc4[nH]ccc34)cn2)CN(C2CCN(C(=O)c3cc(Cl)cc(Cl)c3)CC2)C1` [Example 24, {1-[1-(3,5-dichlorobenzoyl)piperidin-4-yl]-3-[4-(7H-pyrrolo[2,3-d]pyrimidin-4-yl)-1H-pyrazol-1-yl]azetidin-3-yl}acetonitrile], the “IC50 Ratio JAK2/JAK1” value is 6.6.

Consider `N#CCC1(n2cc(-c3ncnc4[nH]ccc34)cn2)CN(C2CCN(Cc3c(C(F)(F)F)ccc(Cl)c3F)CC2)C1` [Example 236, {1-{1-[3-chloro-2-fluoro-6-(trifluoromethyl)benzyl]piperidin-4-yl}-3-[4-(7H-pyrrolo[2,3-d]pyrimidin-4-yl)-1H-pyrazol-1-yl]azetidin-3-yl}acetonitrile], for which the “IC50 Ratio JAK2/JAK1” value is 5.5.

Regarding `N#CCC1(n2cc(-c3ncnc4[nH]ccc34)cn2)CN(C2CCN(C(=O)OCc3ccccc3)CC2)C1` [Example 389, benzyl 4-{3-(cyanomethyl)-3-[4-(7H-pyrrolo[2,3-d]pyrimidin-4-yl)-1H-pyrazol-1-yl]azetidin-1-yl}piperidine-1-carboxylate], the “IC50 Ratio JAK2/JAK1” value is on record as 6.5. Regarding `Cc1nc(C(F)(F)F)ccc1NC(=O)N1CCC(N2CC(CC#N)(n3ccc(-c4ncnc5[nH]ccc45)c3)C2)CC1` [Example 285, 4-{3-(cyanomethyl)-3-[3-(7H-pyrrolo[2,3-d]pyrimidin-4-yl)-1H-pyrrol-1-yl]azetidin-1-yl}-N-[2-methyl-6-(trifluoromethyl)pyridin-3-yl]piperidine-1-carboxamide], the “IC50 Ratio JAK2/JAK1” value was 5.7.

Consider `COc1c(C(=O)N2CCC(N3CC(CC#N)(n4cc(-c5ncnc6[nH]ccc56)cn4)C3)CC2)csc1Cl` [Example 74, {1-{1-[(5-chloro-4-methoxy-3-thienyl)carbonyl]piperidin-4-yl}-3-[4-(7H-pyrrolo[2,3-d]pyrimidin-4-yl)-1H-pyrazol-1-yl]azetidin-3-yl} acetonitrile], for which the “IC50 Ratio JAK2/JAK1” value is reported as 3.8. For `COC(=O)c1ccc(NC(=O)N2CCC(N3CC(CC#N)(n4cc(-c5ncnc6[nH]ccc56)cn4)C3)CC2)c(F)c1` [Example 208, methyl 4-{[(4-{3-(cyanomethyl)-3-[4-(7H-pyrrolo[2,3-d]pyrimidin-4-yl)-1H-pyrazol-1-yl]azetidin-1-yl}piperidin-1-yl)carbonyl]amino}-3-fluorobenzoate] the value was 4.8; for `N#CCC1(n2cc(-c3ncnc4[nH]ccc34)cn2)CN(C2CCN(C(=O)Nc3ccc(Cl)cc3F)CC2)C1` [Example 178, N-(4-chloro-2-fluorophenyl)-4-{3-(cyanomethyl)-3-[4-(7H-pyrrolo[2,3-d]pyrimidin-4-yl)-1H-pyrazol-1-yl]azetidin-1-yl}piperidine-1-carboxamide], 6.5. `Cc1cc(C)c(CC(=O)N2CCC(N3CC(CC#N)(n4cc(-c5ncnc6[nH]ccc56)cn4)C3)CC2)c(C)c1` [Example 113, {1-[1-(mesitylacetyl)piperidin-4-yl]-3-[4-(7H-pyrrolo[2,3-d]pyrimidin-4-yl)-1H-pyrazol-1-yl]azetidin-3-yl} acetonitrile]: the “IC50 Ratio JAK2/JAK1” value amounted to 4.2. In the case of `N#CCC1(n2cc(-c3ncnc4[nH]ccc34)cn2)CN(C2CCN(C(=O)c3cc(CO)nc(C(F)(F)F)n3)CC2)C1` [Example 381, {1-(1-{[6-(hydroxymethyl)-2-(trifluoromethyl)pyrimidin-4-yl]carbonyl}piperidin-4-yl)-3-[4-(7H-pyrrolo[2,3-d]pyrimidin-4-yl)-1H-pyrazol-1-yl]azetidin-3-yl}acetonitrile], the “IC50 Ratio JAK2/JAK1” value is given as 20. Consider `N#CCC1(n2cc(-c3ncnc4[nH]ccc34)cn2)CN(C2CCN(C(=O)c3ncco3)CC2)C1` [Example 16, {1-[1-(1,3-oxazol-2-ylcarbonyl)piperidin-4-yl]-3-[4-(7H-pyrrolo[2,3-d]pyrimidin-4-yl)-1H-pyrazol-1-yl]azetidin-3-yl}acetonitrile], for which the “IC50 Ratio JAK2/JAK1” value was found to be 2.5.

Turning to `N#CCC1(n2ccc(-c3ncnc4[nH]ccc34)c2)CN(C2CCN(C(=O)c3ccc(F)c(F)c3)CC2)C1` [Example 277, {1-[1-(3,4-difluorobenzoyl)piperidin-4-yl]-3-[3-(7H-pyrrolo[2,3-d]pyrimidin-4-yl)-1H-pyrrol-1-yl]azetidin-3-yl}acetonitrile], the “IC50 Ratio JAK2/JAK1” value turned out to be 9.8. Regarding `Cn1cnc(S(=O)(=O)N2CCC(N3CC(CC#N)(n4cc(-c5ncnc6[nH]ccc56)cn4)C3)CC2)c1` [Example 258, {1-{1-[(1-methyl-1H-imidazol-4-yl)sulfonyl]piperidin-4-yl}-3-[4-(7H-pyrrolo[2,3-d]pyrimidin-4-yl)-1H-pyrazol-1-yl]azetidin-3-yl}acetonitrile], the “IC50 Ratio JAK2/JAK1” value came to 5.0.

As for `N#CCC1(n2cc(-c3ncnc4[nH]ccc34)cn2)CN(C2CCN(C(=O)Nc3ccccc3F)CC2)C1` [Example 169, 4-{3-(cyanomethyl)-3-[4-(7H-pyrrolo[2,3-d]pyrimidin-4-yl)-1H-pyrazol-1-yl]azetidin-1-yl}-N-(2-fluorophenyl)piperidine-1-carboxamide], the “IC50 Ratio JAK2/JAK1” value worked out at 5.5. As to `N#CCC1(n2cc(-c3ncnc4[nH]ccc34)cn2)CN(C2CCN(C(=O)Nc3ncc(F)cc3F)CC2)C1` [Example 203, 4-{3-(cyanomethyl)-3-[4-(7H-pyrrolo[2,3-d]pyrimidin-4-yl)-1H-pyrazol-1-yl]azetidin-1-yl}-N-(3,5-difluoropyridin-2-yl)piperidine-1-carboxamide], the “IC50 Ratio JAK2/JAK1” value was 8.6.

Regarding `N#CCC1(n2cc(-c3ncnc4[nH]ccc34)cn2)CN(C2CCN(C(=O)c3cccc(C#N)c3)CC2)C1` [Example 11, 3-[(4-{3-(cyanomethyl)-3-[4-(7H-pyrrolo[2,3-d]pyrimidin-4-yl)-1H-pyrazol-1-yl]azetidin-1-yl}piperidin-1-yl)carbonyl]benzonitrile], the “IC50 Ratio JAK2/JAK1” value is recorded as 7.2. In the case of `N#CCC1(n2cc(-c3ncnc4[nH]ccc34)cn2)CN(C2CCN(Cc3cccc(C(F)(F)F)c3F)CC2)C1` [Example 212, {1-{1-[2-fluoro-3-(trifluoromethyl)benzyl]piperidin-4-yl}-3-[4-(7H-pyrrolo[2,3-d]pyrimidin-4-yl)-1H-pyrazol-1-yl]azetidin-3-yl}acetonitrile], the “IC50 Ratio JAK2/JAK1” value was found to be 7.8. As for `CS(=O)(=O)N1CCC(N2CC(CC#N)(n3cc(-c4ccnc5[nH]ccc45)cn3)C2)CC1` [Example 351, {1-[1-(Methylsulfonyl)piperidin-4-yl]-3-[4-(1H-pyrrolo[2,3-b]pyridin-4-yl)-1H-pyrazol-1-yl]azetidin-3-yl}acetonitrile], the “IC50 Ratio JAK2/JAK1” value was 3.8. Regarding `N#CCC1(n2cc(-c3ncnc4[nH]ccc34)cn2)CN(C2CCN(Cc3cc4ccccc4o3)CC2)C1` [Example 232, {1-[1-(1-benzofuran-2-ylmethyl)piperidin-4-yl]-3-[4-(7H-pyrrolo[2,3-d]pyrimidin-4-yl)-1H-pyrazol-1-yl]azetidin-3-yl}acetonitrile], the “IC50 Ratio JAK2/JAK1” value worked out at 0.7. The figure for `COc1cc(OC)cc(C(=O)N2CCC(N3CC(CC#N)(n4cc(-c5ncnc6[nH]ccc56)cn4)C3)CC2)c1` [Example 33, {1-[1-(3,5-dimethoxybenzoyl)piperidin-4-yl]-3-[4-(7H-pyrrolo[2,3-d]pyrimidin-4-yl)-1H-pyrazol-1-yl]azetidin-3-yl}acetonitrile] is 0.5. As for `N#CCC1(n2cc(-c3ncnc4[nH]ccc34)cn2)CN(C2CCN(C(=O)c3ccc(-c4cccc5ccncc45)c(F)c3)CC2)C1` [Example 131, {1-[1-(3-fluoro-4-isoquinolin-8-ylbenzoyl)piperidin-4-yl]-3-[4-(7H-pyrrolo[2,3-d]pyrimidin-4-yl)-1H-pyrazol-1-yl]azetidin-3-yl} acetonitrile], the “IC50 Ratio JAK2/JAK1” value is on record as 8.1. For `N#CCC1(n2cc(-c3ncnc4[nH]ccc34)cn2)CN(C2CCN(C(=O)c3ccc(-c4ccncc4)c(F)c3)CC2)C1` [Example 117, {1-[1-(3-fluoro-4-pyridin-4-ylbenzoyl)piperidin-4-yl]-3-[4-(7H-pyrrolo[2,3-d]pyrimidin-4-yl)-1H-pyrazol-1-yl]azetidin-3-yl} acetonitrile], the “IC50 Ratio JAK2/JAK1” value is listed as 10.0. Consider `N#CCC1(n2cc(-c3ncnc4[nH]ccc34)cn2)CN(C2CCN(C(=O)c3c(F)cncc3F)CC2)C1` [Example 61, {1-[1-(3,5-difluoroisonicotinoyl)piperidin-4-yl]-3-[4-(7H-pyrrolo[2,3-d]pyrimidin-4-yl)-1H-pyrazol-1-yl]azetidin-3-yl}acetonitrile], for which the “IC50 Ratio JAK2/JAK1” value came out at 4.2.

Take `N#CCC1(n2cc(-c3ncnc4[nH]ccc34)cn2)CN(C2CCN(C(=O)Nc3ccc(F)cc3F)CC2)C1` [Example 171, 4-{3-(cyanomethyl)-3-[4-(7H-pyrrolo[2,3-d]pyrimidin-4-yl)-1H-pyrazol-1-yl]azetidin-1-yl}-N-(2,4-difluorophenyl) piperidine-1-carboxamide]: the “IC50 Ratio JAK2/JAK1” value came to 7.5.

Regarding `N#CCC1(n2cc(-c3ncnc4[nH]ccc34)cn2)CN(C2CCN(C(=O)c3ccc(C(F)(F)F)cc3F)CC2)C1` [Example 82, {1-{1-[2-fluoro-4-(trifluoromethyl)benzoyl]piperidin-4-yl}-3-[4-(7H-pyrrolo[2,3-d]pyrimidin-4-yl)-1H-pyrazol-1-yl]azetidin-3-yl} acetonitrile], the “IC50 Ratio JAK2/JAK1” value is 5.3.

For the origin of these results see patent US10695337B2, “Piperidin-4-yl azetidine derivatives as JAK1 inhibitors” (Incyte Corporation, priority 2010, dated 2020).
